Biological target: Phospho-2-dehydro-3-deoxyheptonate aldolase (Escherichia coli, UniProt C3TIE2)
Test: Competitive inhibition of recombinant Escherichia coli DAH7P synthase using PEP as substrate by Michaelis-Menten equation analysis using UV-visible spectrophotometry

Sequence of Phospho-2-dehydro-3-deoxyheptonate aldolase (C3TIE2 1-350): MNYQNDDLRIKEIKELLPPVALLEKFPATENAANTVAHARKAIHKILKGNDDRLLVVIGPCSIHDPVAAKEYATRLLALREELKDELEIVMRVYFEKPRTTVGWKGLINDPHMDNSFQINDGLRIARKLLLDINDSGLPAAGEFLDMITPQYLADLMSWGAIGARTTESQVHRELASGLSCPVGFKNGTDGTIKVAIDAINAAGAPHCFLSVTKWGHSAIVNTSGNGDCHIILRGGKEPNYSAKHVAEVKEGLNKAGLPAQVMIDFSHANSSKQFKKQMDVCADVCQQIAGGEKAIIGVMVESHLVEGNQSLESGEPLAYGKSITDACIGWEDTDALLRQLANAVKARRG

Ki: 154 µM
SMILES: O=C(O)C(=CCCCCOP(=O)(O)O)CP(=O)(O)O

Source: BindingDB's records for doi:10.1016/j.bmcl.2011.03.071 (University of Canterbury, 2011)
